From PMC8284453 (Antimicrobial Agents and Chemotherapy, 2021)
In brackets after ≈: the same amount, converted by molar mass. Like-named read-outs stand apart in the source and are kept apart here.

How the values were obtained:
[1] = test system: E. coli NCTC 13353 expressing CTX-M-15; settings: approved QC range; ref CLSI AST Subcommittee, February 2021; cited from earlier work
[2] = test system: K. pneumoniae ATCC BAA-2814 expressing KPC-3, SHV-11, and TEM; settings: approved QC range; ref CLSI AST Subcommittee, February 2021; cited from earlier work
[3] = test system: K. pneumoniae UNT-023 expressing KPC, TEM-1, and SHV-11; assay: animal or person; type: in vivo; settings: Klebsiella pneumoniae, in Mus musculus, 1 h
[4] = test system: K. pneumoniae UNT-023 expressing KPC, TEM-1, and SHV-11; assay: microbe, parasite or virus in culture; type: cell-based; settings: Klebsiella pneumoniae
[5] = test system: 1,066 clinical urinary tract infection isolates resistant to both amoxicillin-clavulanic acid and levofloxacin; settings: VNRX-5236 fixed at 4 μg/ml in the combination; cited from earlier work
E. coli 1480076 = assay: Impact of pH and human urine on MIC; type: cell-based
Procedure: (§1) Studies were conducted by IHMA, Schaumberg, IL. […] MICs were determined by broth […] methodology ([30], [31]). […] Antibacterial panels containing 100 μl of antibacterial solution were inoculated with the adjusted inocula using 95-prong inoculator sets. Test panels were read visually after incubation following CLSI guidelines for each organism. MIC values corresponded to the first well with no visible growth.

K. pneumoniae 1434760 = assay: Impact of pH and human urine on MIC; type: cell-based
Procedure: as §1

E. coli ATCC 25922 = assay: Impact of pH and human urine on MIC; type: cell-based; settings: Escherichia coli, ATCC25922, read-out: Median or modal MIC
Procedure: as §1

[6] = test system: K. pneumoniae ATCC 700603; assay: Impact of pH and human urine on MIC; type: cell-based; settings: Klebsiella pneumoniae, ATCC700603, read-out: Median or modal MIC
Procedure: as §1

K. pneumoniae 1266420 = assay: Impact of pH and human urine on MIC; type: cell-based; settings: Klebsiella pneumoniae
Procedure: as §1

[7] = test system: K. pneumoniae ATCC BAA-1705; assay: Impact of pH and human urine on MIC; type: cell-based; settings: Klebsiella pneumoniae, ATCCBAA1705, read-out: Median or modal MIC
Procedure: as §1

[8] = in vivo, cited from earlier work
[9] = test system: strains utilized in time-kill studies; assay: MIC summary across strains utilized in time-kill studies; type: cell-based, E. coli, E. cloacae, K. pneumoniae; settings: across all four strains
[10] = test system: K. pneumoniae ATCC BAA-1705 expressing KPC-2, SHV, and TEM; settings: approved QC range; ref CLSI AST Subcommittee, February 2021; cited from earlier work
[11] = cited from earlier work
[12] = test system: strains of Enterobacterales expressing serine β-lactamases; assay: organism not typed; type: cell-based

Q: What does the source list for Nc1nc(/C(=C/CC(=O)O)C(=O)N[C@@H]2C(=O)N3C(C(=O)O)=CCS[C@H]23)cs1 [CTB, ceftibuten]?
A: QC range (MIC) [1]: 16 to 64 µg/mL; QC range (MIC) [2]: 8 to 32 µg/mL; ED50 [3]: > 128 mg/kg; MIC [4]: 64 µg/mL (≈ 156 µM); MIC90 [5]: > 32 µg/mL; MIC (E. coli 1480076; Escherichia coli, 1480076, read-out: Median or modal MIC): 128 µg/mL (≈ 312 µM); MIC (E. coli 1480076; Escherichia coli, 1480076, Human urine, pH 6, read-out: Median or modal MIC): 32 µg/mL (≈ 78 µM); MIC (E. coli 1480076; Escherichia coli, 1480076, Human urine, pH 7.2, read-out: Median or modal MIC): 32 µg/mL (≈ 78 µM); MIC (K. pneumoniae 1434760; Klebsiella pneumoniae, 1434760, pH 6, read-out: Median or modal MIC): > 128 µg/mL; MIC (K. pneumoniae 1434760; Klebsiella pneumoniae, 1434760, pH 7.2, read-out: Median or modal MIC): 128 µg/mL (≈ 312 µM); MIC (K. pneumoniae 1434760; Klebsiella pneumoniae, 1434760, read-out: Median or modal MIC): > 128 µg/mL; MIC (E. coli ATCC 25922; Human urine, pH 6): 0.25 µg/mL (≈ 0.609 µM); MIC (E. coli ATCC 25922; Human urine, pH 7.2): 0.12 µg/mL (≈ 0.292 µM); MIC (E. coli ATCC 25922; MHII broth): 0.25 µg/mL (≈ 0.609 µM); MIC ([6]; Human urine, pH 6): 1 µg/mL (≈ 2.44 µM); MIC ([6]; Human urine, pH 7.2): 0.5 µg/mL (≈ 1.22 µM); MIC ([6]; MHII broth): 0.5 µg/mL (≈ 1.22 µM); MIC (K. pneumoniae 1266420; Human urine, pH 6, read-out: Median or modal MIC): 64 µg/mL (≈ 156 µM); MIC (K. pneumoniae 1266420; Human urine, pH 7.2, read-out: Median or modal MIC): 16 µg/mL (≈ 39 µM); MIC (K. pneumoniae 1266420; MHII broth, read-out: Median or modal MIC): 32 µg/mL (≈ 78 µM); MIC ([7]; Human urine, pH 6): 2 µg/mL (≈ 4.87 µM); MIC ([7]; Human urine, pH 7.2): 2 µg/mL (≈ 4.87 µM); MIC ([7]; MHII broth): 8 µg/mL (≈ 19.5 µM); oral bioavailability ([8]; po): ~65%; plasma half-life [8]: ~2.4 h; renal excretion [8]: ~56%; MIC range [9]: 16 to 128 µg/mL; QC range (MIC) [10]: 4 to 32 µg/mL; human plasma protein binding [11]: ~60%; MIC50 [12]: 0.12 µg/mL (≈ 0.292 µM); MIC90 [12]: 1 µg/mL (≈ 2.44 µM)
